These results are taken from US20120010179A1, “Methods of using a thiazole derivative” (priority 2006, published 2012).

Data set [1] relates to patients with COPD. Kind of data set: Pharmacodynamic and safety assessments (ECG, vital signs, serum potassium, adverse events, laboratory), Example 1. In kind it is in vivo, human. On the procedure: (§1) Twelve-lead electrocardiograms (ECGs) were conducted after the subject had been resting and supine for ≧3 minutes. In addition to screening and pre-treatment baseline (Day 0) measurements, ECGs were also recorded at specific times during the treatment period. All 12-lead ECG monitors used for this study were calibrated and standardized. The ventricular rate, PR interval (the time elapsing between the beginning of the P wave and the beginning of the QRS interval in an electrocardiogram, corresponding to the electrical activity through the atria), QRS interval (the movement of electrical impulses through the ventricles), QT/QTc interval (the QT interval measures the time between the start of the Q wave and the end of the T wave in the heart's electrical cycle; QTc is a corrected QT interval, as determined by Fridericia's formula [QTcF] and Bazett's formula [QTcB]), and the overall ECG interpretation (normal or abnormal) were documented. Measurements were recorded prior to collection of any blood samples, where applicable. At least three original copies of each ECG (one each for the site, for the sponsor, and for the central ECG provider) were made. […]
(§2) Vital signs (heart rate and systolic blood pressure) were measured after the subject had been sitting for ≧3 minutes. […] Measurements were recorded prior to the collection of any blood samples, where applicable. […]

Data set [2] relates to patients with COPD. Kind of data set: Pharmacodynamic and safety assessments (ECG, vital signs, serum potassium, adverse events, laboratory), Example 2. It is filed as in vivo, human. How it is done: as §1, §2
Data set [3] deals with guinea pig models of pulmonary disease. The conditions noted are these: cited from earlier work.

For `CCOc1ccc(-c2nc(-c3cccc(C(=O)O)n3)cs2)cc1OCC` [Tetomilast, 2-(3,4-diethoxyphenyl)-4-(2-carboxy-6-pyridyl)thiazole], the “differences in adverse events, serum chemistry, hematology, or urinalysis versus placebo” value in data set [1] (oral tetomilast with inhaled albuterol) and in data set [2] (oral tetomilast with inhaled Advair Diskus 250/50) was “no clinically meaningful differences” throughout. The “changes in heart rate, systolic blood pressure, serum potassium, or QT interval versus placebo” value in data set [1] (oral tetomilast with relatively high doses of inhaled albuterol) and in data set [2] (oral tetomilast in combination with Advair Diskus 250/50) was “No clinically meaningful changes” throughout. The “airway resistance and peak expiration flow” value in data set [3] was “improve”.
